Test results reported in patent publication US20120129928A1, “Chlorine-Free Liquid Microbicide Treatment” (University of Georgia Research Foundation, Inc., priority 2010, published 2012).
Read-outs that look alike come from different tables or passages of the source.

What was measured:
[1] = system: spores of Bacillus anthracis Sterne; format: cell-based, Bacillus anthracis Sterne (34F2)
various yeast species = assay: Effect of levulinic acids plus SDS at 21° C. on various yeast species; format: cell-based; conditions: for Yeast counts at min: 1: 1 min; for Yeast counts at min: 2: 2 min; for Yeast counts at min: 5: 5 min; for Yeast counts at min: 10: 10 min; for Yeast counts at min: 20: 20 min; for Yeast counts at min: 30: 30 min; for Yeast counts at min: 60: 60 min
L. monocytogenes = format: cell-based, Listeria monocytogenes; conditions: 21° C.
S. typhimurium DT 104 = format: cell-based, Salmonella typhimurium DT104; conditions: water, 21° C.
S. enteritidis = assay: Reduction of S. enteritidis in water treated with organic acids and SDS; format: cell-based, Salmonella enteritidis; conditions: water; for S. enteritidis counts: 21° C.; for Salmonella reduction: contact for 30 minutes
[2] = 0 min, listed as 0.5% levulinic acid
[3] = 0 min, listed as 1.0% levulinic acid
[4] = 0 min, listed as 2.0% levulinic acid
[5] = 2 min, listed as 0.5% levulinic acid
[6] = 2 min, listed as 1.0% levulinic acid
[7] = 2 min, listed as 2.0% levulinic acid
[8] = 5 min, listed as 0.5% levulinic acid
[9] = 5 min, listed as 1.0% levulinic acid
[10] = 5 min, listed as 2.0% levulinic acid
[11] = 10 min, listed as 0.5% levulinic acid
[12] = 10 min, listed as 1.0% levulinic acid
[13] = 10 min, listed as 2.0% levulinic acid
[14] = 20 min, listed as 0.5% levulinic acid
[15] = 20 min, listed as 1.0% levulinic acid
[16] = 20 min, listed as 2.0% levulinic acid
[17] = 30 min, listed as 0.5% levulinic acid
[18] = 30 min, listed as 1.0% levulinic acid
[19] = 30 min, listed as 2.0% levulinic acid

CC(=O)CCC(=O)O [levulinic acid]
CFU % recovery (as compared to control flask F) ([1]; Experiment A3, 10 min): 81%
CFU % recovery (as compared to control flask F) ([1]; Experiment A3, 45 min): 55%
CFU % recovery (as compared to control flask F) ([1]; Experiment A3, 90 min): 64%
CFU % recovery (as compared to control flask F) ([1]; Experiment A4 absent heat, RT, 0 min): 89%
CFU % recovery (as compared to control flask F) ([1]; Experiment A4 absent heat, RT, 1 h): 54%
CFU % recovery (as compared to control flask F) ([1]; Experiment A4 absent heat, RT, 2 h): 27%
CFU % recovery (as compared to control flask F) ([1]; Experiment A4 absent heat, RT, 3 h): 30%
CFU % recovery (as compared to control flask F) ([1]; Experiment A4 absent heat, RT, 4 h): 15%
CFU % recovery (as compared to control flask F) ([1]; Experiment A4 with heat, 65° C., 0 min): 70%
CFU % recovery (as compared to control flask F) ([1]; Experiment A4 with heat, 65° C., 1 h): 78%
CFU % recovery (as compared to control flask F) ([1]; Experiment A4 with heat, 65° C., 2 h): 45%
CFU % recovery (as compared to control flask F) ([1]; Experiment A4 with heat, 65° C., 3 h): 33%
CFU % recovery (as compared to control flask F) ([1]; Experiment A4 with heat, 65° C., 4 h): 46%
CFU % recovery (as compared to control flask F) ([1]; Experiment A5 absent heat, RT, 1 h): 80%
CFU % recovery (as compared to control flask F) ([1]; Experiment A5 absent heat, RT, 2 h): 46%
CFU % recovery (as compared to control flask F) ([1]; Experiment A5 absent heat, RT, 3 h): 67%
CFU % recovery (as compared to control flask F) ([1]; Experiment A5 absent heat, RT, 4 h): 37%
CFU % recovery (as compared to control flask F) ([1]; Experiment A5 with heat, 65° C., 0 min): 75%
CFU % recovery (as compared to control flask F) ([1]; Experiment A5 with heat, 65° C., 1 h): 58%
CFU % recovery (as compared to control flask F) ([1]; Experiment A5 with heat, 65° C., 2 h): 34%
CFU % recovery (as compared to control flask F) ([1]; Experiment A5 with heat, 65° C., 3 h): 34%
CFU % recovery (as compared to control flask F) ([1]; Experiment A5 with heat, 65° C., 4 h): 14%
Yeast counts at min: 1 (various yeast species; Debaryomyces hansenii): 4.8 log CFU/ml
Yeast counts at min: 2 (various yeast species; Debaryomyces hansenii): 4.9 log CFU/ml
Yeast counts at min: 5 (various yeast species; Debaryomyces hansenii): 4.6 log CFU/ml
Yeast counts at min: 10 (various yeast species; Debaryomyces hansenii): 4.4 log CFU/ml
Yeast counts at min: 20 (various yeast species; Debaryomyces hansenii): 4.7 log CFU/ml
Yeast counts at min: 30 (various yeast species; Debaryomyces hansenii): 3.0 log CFU/ml
Yeast counts at min: 60 (various yeast species; Debaryomyces hansenii): 1.3 log CFU/ml
Yeast counts at min: 1 (various yeast species; Geotrichum candidum): 4.4 log CFU/ml
Yeast counts at min: 2 (various yeast species; Geotrichum candidum): 4.4 log CFU/ml
Yeast counts at min: 5 (various yeast species; Geotrichum candidum): 4.3 log CFU/ml
Yeast counts at min: 10 (various yeast species; Geotrichum candidum): 4.1 log CFU/ml
Yeast counts at min: 20 (various yeast species; Geotrichum candidum): 3.8 log CFU/ml
Yeast counts at min: 30 (various yeast species; Geotrichum candidum): 3.4 log CFU/ml
Yeast counts at min: 60 (various yeast species; Geotrichum candidum): 2.0 log CFU/ml
Yeast counts at min: 1 (various yeast species; Saccharomyces cerevisiae): 5.3 log CFU/ml
Yeast counts at min: 2 (various yeast species; Saccharomyces cerevisiae): 5.5 log CFU/ml
Yeast counts at min: 5 (various yeast species; Saccharomyces cerevisiae): 5.4 log CFU/ml
Yeast counts at min: 10 (various yeast species; Saccharomyces cerevisiae): 5.3 log CFU/ml
Yeast counts at min: 20 (various yeast species; Saccharomyces cerevisiae): 5.3 log CFU/ml
Yeast counts at min: 30 (various yeast species; Saccharomyces cerevisiae): 5.5 log CFU/ml
Yeast counts at min: 60 (various yeast species; Saccharomyces cerevisiae): 5.0 log CFU/ml
L. monocytogenes counts (L. monocytogenes; 0 min): 6.9 ± 0.1 log CFU/ml
L. monocytogenes counts (L. monocytogenes; [2]): 6.7 ± 0.2 log CFU/ml
L. monocytogenes counts (L. monocytogenes; [3]): 6.8 ± 0.3 log CFU/ml
L. monocytogenes counts (L. monocytogenes; [4]): 6.8 ± 0.3 log CFU/ml
L. monocytogenes counts (L. monocytogenes; 2 min): 6.9 ± 0.2 log CFU/ml
L. monocytogenes counts (L. monocytogenes; [5]): 6.7 ± 0.1 log CFU/ml
L. monocytogenes counts (L. monocytogenes; [6]): 6.7 ± 0.2 log CFU/ml
L. monocytogenes counts (L. monocytogenes; [7]): 6.8 ± 0.2 log CFU/ml
L. monocytogenes counts (L. monocytogenes; 5 min): 6.9 ± 0.3 log CFU/ml
L. monocytogenes counts (L. monocytogenes; [8]): 6.8 ± 0.3 log CFU/ml
L. monocytogenes counts (L. monocytogenes; [9]): 6.6 ± 0.3 log CFU/ml
L. monocytogenes counts (L. monocytogenes; [10]): 6.9 ± 0.2 log CFU/ml
L. monocytogenes counts (L. monocytogenes; 10 min): 6.9 ± 0.1 log CFU/ml
L. monocytogenes counts (L. monocytogenes; [11]): 6.9 ± 0.2 log CFU/ml
L. monocytogenes counts (L. monocytogenes; [12]): 6.6 ± 0.3 log CFU/ml
L. monocytogenes counts (L. monocytogenes; [13]): 6.7 ± 0.2 log CFU/ml
L. monocytogenes counts (L. monocytogenes; 20 min): 6.9 ± 0.3 log CFU/ml
L. monocytogenes counts (L. monocytogenes; [14]): 6.7 ± 0.2 log CFU/ml
L. monocytogenes counts (L. monocytogenes; [15]): 6.6 ± 0.0 log CFU/ml
L. monocytogenes counts (L. monocytogenes; [16]): 6.9 ± 0.2 log CFU/ml
L. monocytogenes counts (L. monocytogenes; 30 min): 6.8 ± 0.3 log CFU/ml
L. monocytogenes counts (L. monocytogenes; [17]): 6.8 ± 0.2 log CFU/ml
L. monocytogenes counts (L. monocytogenes; [18]): 6.6 ± 0.3 log CFU/ml
L. monocytogenes counts (L. monocytogenes; [19]): 6.8 ± 0.2 log CFU/ml
S. typhimurium DT 104 counts (S. typhimurium DT 104; 0 min): 6.8 log CFU/ml
S. typhimurium DT 104 counts (S. typhimurium DT 104; 1 min): 6.7 log CFU/ml
S. typhimurium DT 104 counts (S. typhimurium DT 104; 2 min): 6.6 log CFU/ml
S. typhimurium DT 104 counts (S. typhimurium DT 104; 5 min): 6.5 log CFU/ml
S. typhimurium DT 104 counts (S. typhimurium DT 104; 10 min): 6.7 log CFU/ml
S. typhimurium DT 104 counts (S. typhimurium DT 104; 20 min): 6.6 log CFU/ml
S. typhimurium DT 104 counts (S. typhimurium DT 104; 30 min): 6.4 log CFU/ml
S. typhimurium DT 104 counts (S. typhimurium DT 104; 60 min): 5.9 log CFU/ml
S. enteritidis counts (S. enteritidis; 0 min, listed as 0.1% levulinic acid): 7.1 log CFU/ml
S. enteritidis counts (S. enteritidis; [2]): 7.1 log CFU/ml
S. enteritidis counts (S. enteritidis; [3]): 6.9 log CFU/ml
S. enteritidis counts (S. enteritidis; [4]): 6.7 log CFU/ml
S. enteritidis counts (S. enteritidis; 0 min, listed as 3.0% levulinic acid): 6.6 log CFU/ml
S. enteritidis counts (S. enteritidis; 2 min, listed as 0.1% levulinic acid): 7.1 log CFU/ml
S. enteritidis counts (S. enteritidis; [5]): 6.8 log CFU/ml
S. enteritidis counts (S. enteritidis; [6]): 6.7 log CFU/ml
S. enteritidis counts (S. enteritidis; [7]): 6.7 log CFU/ml
S. enteritidis counts (S. enteritidis; 2 min, listed as 3.0% levulinic acid): 6.8 log CFU/ml
S. enteritidis counts (S. enteritidis; 5 min, listed as 0.1% levulinic acid): 6.9 log CFU/ml
S. enteritidis counts (S. enteritidis; [8]): 6.9 log CFU/ml
S. enteritidis counts (S. enteritidis; [9]): 6.8 log CFU/ml
S. enteritidis counts (S. enteritidis; [10]): 6.7 log CFU/ml
S. enteritidis counts (S. enteritidis; 5 min, listed as 3.0% levulinic acid): 6.5 log CFU/ml
S. enteritidis counts (S. enteritidis; 10 min, listed as 0.1% levulinic acid): 7.0 log CFU/ml
S. enteritidis counts (S. enteritidis; [11]): 6.9 log CFU/ml
S. enteritidis counts (S. enteritidis; [12]): 6.9 log CFU/ml
S. enteritidis counts (S. enteritidis; [13]): 6.8 log CFU/ml
S. enteritidis counts (S. enteritidis; 10 min, listed as 3.0% levulinic acid): 6.2 log CFU/ml
S. enteritidis counts (S. enteritidis; 20 min, listed as 0.1% levulinic acid): 6.9 log CFU/ml
S. enteritidis counts (S. enteritidis; [14]): 6.6 log CFU/ml
S. enteritidis counts (S. enteritidis; [15]): 6.9 log CFU/ml
S. enteritidis counts (S. enteritidis; [16]): 6.5 log CFU/ml
S. enteritidis counts (S. enteritidis; 20 min, listed as 3.0% levulinic acid): 5.1 log CFU/ml
S. enteritidis counts (S. enteritidis; 30 min, listed as 0.1% levulinic acid): 6.9 log CFU/ml
S. enteritidis counts (S. enteritidis; [17]): 6.7 log CFU/ml
S. enteritidis counts (S. enteritidis; [18]): 6.7 log CFU/ml
S. enteritidis counts (S. enteritidis; [19]): 6.0 log CFU/ml
S. enteritidis counts (S. enteritidis; 30 min, listed as 3.0% levulinic acid): 3.8 log CFU/ml
Salmonella reduction (S. enteritidis; listed as 0.1 to 2.0% by weight levulinic acid): ~1 log CFU/ml
Salmonella reduction (S. enteritidis; listed as 1% by weight levulinic acid): ≤ 1 log CFU/ml
Salmonella reduction (S. enteritidis; listed as 3% levulinic acid): 3.4 log CFU/ml
Salmonella reduction (S. enteritidis; listed as 3.0% levulinic acid): 3.4 log CFU/ml
